Test system: Wnt pathway
Assay: Wnt pathway Super-top flash (STF) reporter gene assay (primary assay)
Format: cell-based
Conditions: HEK293 STF cells co-cultured 1:1 with L Wnt3A cells; 48 h incubation; inhibition of luminescence signaling
Method: The primary assay is based on Wnt pathway Super-top flash (STF) reporter gene assay:
HEK293 STF stable clones (HEK293 cells stably transfected with “Super-Top Flash” TCF-luciferase reporter plasmid) were kept in complete culture medium (DMEM with 4 mM L-Gln, 1.5 g/L sodium bicarbonate and 4.5 g/L glucose containing 6 μg/mL Blasticidin and 10% FBS). L Wnt3A cells (CRL-2647, ATCC) were kept in DMEM (Gibico) containing 10% FBS (Hyclone). HEK293 STF and L Wnt3A cells were harvested when 90% confluence and cell suspension was mixed with a fixed ratio of 1:1 (HEK293 STF: L Wnt3A). 100 μL/well of mixed cells suspension was added to the 96-well-plate with final cell concentration of 12,000 cells/well and then cultured for an additional 24 hours before adding compounds.
Compounds were diluted in DMSO in sequence and then diluted with DMEM medium. 20 μL medium containing compound was added to the cells according to the pre-setting dose. Cell plates were incubated at 37° C. for an additional 48 hours.
50 μL luciferase solution (Bright-Glo, Promega) was added to each well […] the 48 h incubation. The plates were incubated at room temperature for 5 min under gentle shaking. Luminescence signaling was measured with a plate reader (PHERAstar FS, BMG). The IC50 (potency) of compounds was calculated based on the inhibition of luminescence signaling.

| IC50 [nM] | Structure (SMILES) |
| --- | --- |
| 1 | Cc1cc(-c2ncc(CNc3nccc(-c4cncc(C#N)c4)c3F)cc2C#N)ccn1 [Compound A-131] |
| 0.64 | COc1cc(CNc2nccc(-c3cc4cccnc4cn3)n2)cnc1-c1ccnc(C)c1 [Compound A-182] |
| 6.7 | Cc1cc(-c2ccc(CNc3ncnc(-c4ccc5ncccc5c4)n3)cc2)ccn1 [Compound A-160] |
| 12 | Cc1cc(-c2ccc(CNc3nccc(N4CCc5ncccc5C4)n3)cc2)ccn1 [Compound A-156] |
| 5.9 | Cc1cc(-c2ccc(CNc3ncnc(-c4ccc5nn(C)cc5c4)c3F)cc2)ccn1 [Compound A-14] |
| 0.84 | Cc1cc(-c2ncc(CNc3nsc(-c4cc5cccnc5cn4)n3)cc2F)ccn1 [Compound A-195] |
| 1130 | Cc1cc(-c2ccc(CNc3cc(N4CCc5ccccc5C4=O)ncn3)cc2)ccn1 [Compound A-145] |
| 0.07 | COc1cc(CNc2nsc(-c3ccc4ncccc4c3)n2)cnc1-c1ccnc(C)c1 [Compound A-193] |
| 8 | Cc1cc(-c2ncc(CNc3nccc(-c4ccc5nonc5c4)c3F)cc2F)ccn1 [Compound A-114] |
| 1.4 | Cc1cc(-c2ncc(CNc3ncnc(-c4ccc5ccccc5c4)c3F)cc2C)ccn1 [Compound A-33] |
| 0.7 | N#Cc1ccc2cc(CNc3ncnc(-c4ccc5ncccc5c4)c3F)ccc2c1 [Compound A-42, 6-((5-fluoro-6-(quinolin-6-yl)pyrimidin-4-ylamino)methyl)-2-naphthonitrile] |
| 211 | Cc1cc(-c2ccc(CNc3ncnc(-c4ccc(Cl)cc4)c3F)cc2)ccn1 [Compound A-20] |
| 0.14 | Cc1cc(-c2ncc(CNc3ncnc(-c4cc5cccnc5cn4)c3F)cc2F)ccn1 [Compound A-85, 5-fluoro-N-((3-fluoro-2′-methyl-2,4′-bipyridin-5-yl)methyl)-6-(1,7-naphthyridin-6-yl)pyrimidin-4-amine] |
| 89 | Cc1cc(-c2ccc(CNc3ncnc(N4CCc5c(C#N)cccc5C4)c3F)cc2)ccn1 [Compound A-53] |
| 0.51 | Cc1cc(-c2ncc(CNc3ncnc(N4CCn5nccc5C4)c3F)cc2F)ccn1 [Compound A-87] |
| 3000 | Cn1nc(CNc2ncnc(-c3ccc4ncccc4c3)c2F)ccc1=O [Compound A-83] |
| 3000 | Cc1cc(-c2ccc(CNc3ccnc(-c4ccc5ncccc5c4)n3)cc2)ccn1 [Compound A-157] |
| 10 | CS(=O)(=O)CCNc1ccc(CNc2nccc(-c3ccc4ncccc4c3)c2F)cn1 [Compound A-112] |
| 17 | Cc1cc(-c2ccc(CNc3nccc(-c4ccc5ncncc5c4)n3)cc2)ccn1 [Compound A-159] |
| 0.06 | Cc1cc(-c2ncc(CNc3nccc(-c4cc5cccnc5cn4)c3F)cc2C#N)ccn1 [Compound A-121, 5-((3-fluoro-4-(1,7-naphthyridin-6-yl)pyridin-2-ylamino)methyl)-2′-methyl-2,4′-bipyridine-3-carbonitrile] |
| 0.27 | Cc1cc(-c2ccc(CNc3nsc(-c4ccc5ncccc5c4)n3)cc2)ccn1 [Compound A-186] |
| 0.44 | COc1cc(CNc2ncnc(-c3ccc4ncccc4c3)c2F)cnc1-c1ccnc(C)c1 [Compound A-65] |
| 2.8 | Cc1cc(-c2ccc(CNc3ncnc(-c4ccc5ncncc5c4)c3F)cc2)ccn1 [Compound A-9] |

| IC50 [nM] | Structure (SMILES) |
| --- | --- |
| 0.54 | Cc1cc(-c2ccc(C(C)Nc3nccc(-c4ccc5ncccc5c4)c3F)cc2)ccn1 (stereo not shown) [Compound A-102] |
| 4.3 | Cc1cc(-c2ncc(CNc3nnc(-c4ccc5ncccc5c4)s3)cc2C#N)ccn1 [Compound A-185] |
| 12 | N#Cc1ccc(NCCNc2nccc(-c3ccc4ncccc4c3)c2F)nc1 [Compound A-120] |
| 1.6 | Cc1cc(-c2ccc(CNc3ncnc(-c4ccc5nccn5c4)c3F)cc2)ccn1 [Compound A-11] |
| 0.13 | COc1cc(CNc2nccc(-c3cc4cccnc4cn3)c2F)cnc1-c1ccnc(C)c1 [Compound A-122] |
| 0.38 | Cc1cc(-c2ncc(CNc3nsc(-c4ccc5ncccc5c4)n3)cc2C)ccn1 [Compound A-191] |
| 3.6 | Cc1cc(-c2ccc(CNc3cc(-c4ccc5ncccc5c4)ccn3)cc2)ccn1 [Compound A-166] |
| 0.26 | COc1cc(CNc2ncnc(-c3cc4cccnc4cn3)c2F)cnc1-c1ccnc(C)c1 [Compound A-84] |
| 2000 | Cc1cc(-c2ccc(CNc3ncnc(-c4ccc5ccccc5c4)c3C)cc2)ccn1 [Compound A-143] |
| 3000 | Cc1cc(-c2ccc(CNc3cc(-c4ccc5ccccc5c4)nc(C)n3)cc2)ccn1 [Compound A-139] |
| 1.5 | Cc1cc(-c2ccc(CNc3ncnc(-c4ccc5nccnc5c4)c3F)cc2)ccn1 [Compound A-8] |
| 10 | Cc1cc(-c2ncc(CNc3ncnc(N4CCn5nncc5C4)c3F)cc2C#N)ccn1 [Compound A-92] |
| 0.34 | Cc1cc(-c2ncc(CNc3ncnc(-c4cc5cccnc5cn4)c3F)cc2C#N)ccn1 [Compound A-86] |
| 1.7 | Cc1cc(-c2ncc(CNc3nccc(-c4ccc5ncccc5c4)n3)cn2)ccn1 [Compound A-172] |
| 15 | Cc1cc(-c2ccc(CNc3ncnc(N4CCc5ccc(F)cc5C4)c3F)cc2)ccn1 [Compound A-23] |
| 0.04 | Cc1cc(-c2ncc(CNc3nccc(-c4ccc5ncccc5n4)c3F)cc2C#N)ccn1 [Compound A-126] |
| 1 | Cc1cc(-c2ncc(CNc3nccc(-c4ccc5ncccc5n4)c3F)cc2F)ccn1 [Compound A-108] |
| 16 | Cc1cc(-c2ccc(CNc3ncnc(-c4ccc5ncccc5c4)c3F)cc2)cc[n+]1[O-] [Compound A-64, 4-(4-((5-fluoro-6-(quinolin-6-yl)pyrimidin-4-ylamino)methyl)phenyl)-2-methylpyridine 1-oxide] |
| 0.12 | Cc1cc(-c2ncc(CNc3nccc(-c4ccc5ncnn5c4)c3F)cc2F)ccn1 [Compound A-123] |
| 480 | Cc1cc(-c2ccc(CNc3ncnc(-c4ccccc4Cl)c3F)cc2)ccn1 [Compound A-18] |
| 0.67 | Cc1cc(-c2ncc(CNc3ncnc(N4CCc5ncsc5C4)c3F)cc2F)ccn1 [Compound A-54] |
| 625 | Cc1cc(-c2ncc(CNc3ncnc(NCC4CC4)c3F)cc2F)ccn1 [Compound A-81] |
| 0.3 | Cc1cc(-c2ccc(CNc3ncnc(-c4ccc5ncsc5c4)c3F)cc2)ccn1 [Compound A-12] |

| IC50 [nM] | Structure (SMILES) |
| --- | --- |
| 1 | Cc1cc(-c2ncc(CNc3nccc(-c4ccc5nnccc5c4)c3F)cc2F)ccn1 [Compound A-110] |
| 34 | Cc1cc(-c2ncc(CNc3ncnc(N4CCn5ncnc5C4)c3F)cc2F)ccn1 [Compound A-58] |
| 2.4 | Cc1cc(-c2ccc(CNc3ncnc(-c4ccc5ccccc5c4)c3F)nc2)ccn1 [Compound A-37] |
| > 1000 | Cc1cc(-c2ccc(CNc3ncnc(-c4ccccc4)c3F)cc2)ccn1 [Compound A-17] |
| 4.9 | Cc1cc(-c2ccc(CNc3nccc(-c4ccc5ncccc5c4)n3)cn2)ccn1 [Compound A-169] |
| 3000 | Cc1cc(-c2ccc(CNc3nc(N4CCc5ncccc5C4)ncc3F)cc2)ccn1 [Compound A-161] |
| 0.85 | Cc1cc(-c2ncc(CNc3nccc(-c4ccc5ncccc5c4)n3)cc2F)ccn1 [Compound A-168] |
| 10 | O=S1(=O)CCN(c2ccc(CNc3nccc(-c4ccc5ncccc5c4)c3F)cn2)CC1 [Compound A-111] |
| 4.9 | Cc1cc(-c2ccc(CNc3nccc(-c4ccc5ccccc5c4)n3)cc2)ccn1 [Compound A-152] |
| 500 | N#Cc1cnc2cc(CNc3nccc(-c4ccc5ncccc5c4)n3)ccc2c1 [Compound A-179, 7-((4-(quinolin-6-yl)pyrimidin-2-ylamino)methyl)quinoline-3-carbonitrile] |
| 16 | Cn1nccc1-c1ccc(CNc2nccc(-c3ccc4ncccc4c3)c2F)cc1 [Compound A-113] |
| 0.4 | Cc1cc(-c2ccc(CNc3nsc(-c4ccc5ncccc5c4)n3)cn2)ccn1 [Compound A-190] |
| 577 | Cc1cc(-c2ccc(CNc3ncnc(-c4ccc5ccccc5c4)c3F)s2)ccn1 [Compound A-29] |
| 1.4 | Cc1cc(-c2ccc(CNc3ncnc(-c4ccc5ccccc5c4)c3F)cc2)ccn1 [Compound A-1, 5-fluoro-N-(4-(2-methylpyridin-4-yl)benzyl)-6-(naphthalen-2-yl)pyrimidin-4-amine] |
| 0.5 | Cc1cc(-c2ncc(CNc3ncnc(-c4ccc5ncccc5c4)c3F)cc2F)ccn1 [Compound A-36] |
| 0.39 | Cc1cc(-c2ncc(CNc3ncnc(-c4ccc5ncsc5c4)c3F)cc2F)ccn1 [Compound A-49] |
| 0.3 | Cc1cc(-c2ccc(CNc3ncnc(-c4ccc5ncccc5c4)c3F)cc2)ccn1 [Compound A-4] |
| 14 | Cc1cc(-c2ncc(CNc3ncnc(N4CCOc5ncccc5C4)c3F)cc2F)ccn1 [Compound A-89] |
| 0.31 | Cc1cc(-c2ncc(CNc3nccc(-c4ccc5ncccc5c4)n3)cc2C#N)ccn1 [Compound A-171] |
| 73 | Cc1cc(-c2ncc(CNc3ncnc(C#Cc4cccnc4)c3F)cc2F)ccn1 [Compound A-69, 5-fluoro-N-((3-fluoro-2′-methyl-2,4′-bipyridin-5-yl)methyl)-6-(pyridin-3-ylethynyl)pyrimidin-4-amine] |
| 1 | Cc1cc(-c2ccc(CNc3ncnc(-c4ccc5ncsc5c4)c3F)cn2)ccn1 [Compound A-50] |
